# From US12077503B2, “Substituted cyclic amides and their use as herbicides” (FMC CORPORATION, priority 2015, dated 2024)
# Legend:
# Format in all cases: in vivo
# [1] = test system: giant foxtail (Setaria faberii); assay: Test A preemergence; conditions: Setaria faberi, pre-emergence, 240 h, 0 to 100 scale where 0 is no effect and 100 is complete control, read-out: Foxtail, Giant plant response rating
# Outline: (§1)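 Greenhouse, ~10 d after spray; visual injury vs untreated controls, 0 = no effect, 100 = complete control. Preemergence: directed soil spray over planted seeds. Postemergence: plants 2–10 cm, 1–2 leaf stage. Loam/sand blend. Compound in non-phytotoxic solvent with surfactant.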
# Kochia (Kochia scoparia) [2] = assay: Test A preemergence; conditions: Bassia scoparia, pre-emergence, 240 h, 0 to 100 scale where 0 is no effect and 100 is complete control, read-out: Kochia plant response rating
# Outline: as §1
# [3] = test system: ragweed (common ragweed, Ambrosia elatior); assay: Test A preemergence; conditions: Ambrosia artemisiifolia, pre-emergence, 240 h, 0 to 100 scale where 0 is no effect and 100 is complete control, read-out: Ragweed plant response rating
# Outline: as §1
# [4] = test system: barnyardgrass (Echinochloa crus-galli); assay: Test A preemergence; conditions: Echinochloa crus-galli, pre-emergence, 240 h, 0 to 100 scale where 0 is no effect and 100 is complete control, read-out: Barnyardgrass plant response rating
# Outline: as §1
# [5] = test system: ryegrass, Italian (Italian ryegrass, Lolium multiflorum); assay: Test A preemergence; conditions: Lolium multiflorum, pre-emergence, 240 h, 0 to 100 scale where 0 is no effect and 100 is complete control, read-out: Ryegrass, Italian plant response rating
# Outline: as §1
# [6] = test system: pigweed (Amaranthus retroflexus); assay: Test A preemergence; conditions: Amaranthus retroflexus, pre-emergence, 240 h, 0 to 100 scale where 0 is no effect and 100 is complete control, read-out: Pigweed plant response rating
# [7] = test system: barnyardgrass (Echinochloa crus-galli); assay: Test B flooded paddy test; conditions: Echinochloa crus-galli, 250 g ai/ha, Flood; 0 to 100 scale where 0 is no effect and 100 is complete control; read-out: Barnyardgrass plant response rating
# Outline: (§2)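 Plants at 2-leaf stage flooded to 3 cm above soil, with compounds applied directly to paddy water and that depth maintained. Plants kept in greenhouse 13–15 d. Visual rating versus controls on a 0 (no effect) to 100 (complete control) scale.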
# [8] = test system: ducksalad (Heteranthera limosa); assay: Test B flooded paddy test; conditions: Heteranthera limosa, 250 g ai/ha, Flood; 0 to 100 scale where 0 is no effect and 100 is complete control; read-out: Ducksalad plant response rating
# Outline: as §2
# rice (Oryra sativa) = assay: Test B flooded paddy test; conditions: Oryza sativa, 250 g ai/ha, Flood; 0 to 100 scale where 0 is no effect and 100 is complete control; read-out: Rice plant response rating
# Outline: as §2
# [9] = test system: sedge, umbrella (small-flower umbrella sedge, Cyperus difformis); assay: Test B flooded paddy test; conditions: Cyperus difformis, 250 g ai/ha, Flood; 0 to 100 scale where 0 is no effect and 100 is complete control; read-out: Sedge, Umbrella plant response rating
# Outline: as §2
# [10] = test system: blackgrass (Alopecurus myosuroides); assay: Test A postemergence; conditions: Alopecurus myosuroides, post-emergence, 240 h, Postemergence, read-out: Blackgrass plant response rating (0 to 100 scale)
# Outline: as §1
# [11] = test system: Galium (catchweed bedstraw, Galium aparine); assay: Test A postemergence; conditions: Galium, post-emergence, 240 h, Postemergence, read-out: Galium plant response rating (0 to 100 scale)
# Outline: as §1
# [12] = test system: giant foxtail (Setaria faberii); assay: Test A postemergence; conditions: Setaria faberi, post-emergence, 240 h, Postemergence, read-out: Foxtail, Giant plant response rating (0 to 100 scale)
# Outline: as §1
# [13] = test system: wheat (Triticum aestivum); assay: Test A postemergence; conditions: Triticum aestivum, post-emergence, 240 h, Postemergence, read-out: Wheat plant response rating (0 to 100 scale)
# Outline: as §1
# Kochia (Kochia scoparia) [14] = assay: Test A postemergence; conditions: Bassia scoparia, post-emergence, 240 h, Postemergence, read-out: Kochia plant response rating (0 to 100 scale)
# Outline: as §1
# [15] = test system: ragweed (common ragweed, Ambrosia elatior); assay: Test A postemergence; conditions: Ambrosia artemisiifolia, post-emergence, 240 h, Postemergence, read-out: Ragweed plant response rating (0 to 100 scale)
# Outline: as §1
# corn (Zea mays) = assay: Test A postemergence; conditions: Zea mays, post-emergence, 240 h, Postemergence, read-out: Corn plant response rating (0 to 100 scale)
# Outline: as §1
# [16] = test system: barnyardgrass (Echinochloa crus-galli); assay: Test A postemergence; conditions: Echinochloa crus-galli, post-emergence, 240 h, Postemergence
# Outline: as §1
# [17] = test system: ryegrass, Italian (Italian ryegrass, Lolium multiflorum); assay: Test A postemergence; conditions: Lolium multiflorum, post-emergence, 240 h, Postemergence, read-out: Ryegrass, Italian plant response rating (0 to 100 scale)
# Outline: as §1
# [18] = test system: pigweed (Amaranthus retroflexus); assay: Test A postemergence; conditions: Amaranthus retroflexus, post-emergence, 240 h, Postemergence, read-out: Pigweed plant response rating (0 to 100 scale)
# Outline: as §1
# [19] = 125 g ai/ha, preemergence, visual injury rating, approximately 10 d
# [20] = 125 g ai/ha, visual rating about 10 d after treatment
# [21] = 31 g ai/ha, 0 is no effect, 100 is complete control
smiles,measurement,setting,value
CN1C[C@H](c2csc3c2CCOC3)[C@@H](C(=O)Nc2ccccc2F)C1=O [Compound 1267],pest or weed control at 31 g/ha,"[1]; 31 g ai/ha, Preemergence",90%
same,pest or weed control at 125 g/ha,[1]; [19],90%
same,pest or weed control at 31 g/ha,"Kochia (Kochia scoparia) [2]; 31 g ai/ha, Preemergence",0%
same,pest or weed control at 125 g/ha,Kochia (Kochia scoparia) [2]; [19],0%
same,pest or weed control at 31 g/ha,"[3]; 31 g ai/ha, Preemergence",0%
same,pest or weed control at 125 g/ha,[3]; [19],0%
same,pest or weed control at 31 g/ha,"[4]; 31 g ai/ha, Preemergence",90%
same,pest or weed control at 125 g/ha,[4]; [19],90%
same,pest or weed control at 31 g/ha,"[5]; 31 g ai/ha, Preemergence",0%
same,pest or weed control at 125 g/ha,[5]; [19],0%
same,pest or weed control at 31 g/ha,"[6]; 31 g ai/ha, Preemergence",0%
same,pest or weed control at 125 g/ha,[6]; [19],0%
same,pest or weed control at 250 g/ha,[7],90%
same,pest or weed control at 250 g/ha,[8],90%
same,pest or weed control at 250 g/ha,rice (Oryra sativa),0%
same,pest or weed control at 250 g/ha,[9],0%
same,pest or weed control at 125 g/ha,[10]; [20],0%
same,pest or weed control at 31 g/ha,[10]; [21],0%
same,pest or weed control at 125 g/ha,[11]; [20],0%
same,pest or weed control at 31 g/ha,[11]; [21],0%
same,pest or weed control at 125 g/ha,[12]; [20],90%
same,pest or weed control at 31 g/ha,[12]; [21],60%
same,plant injury at 125 g/ha,[13]; [20],0%
same,plant injury at 31 g/ha,[13]; [21],0%
same,pest or weed control at 125 g/ha,Kochia (Kochia scoparia) [14]; [20],0%
same,pest or weed control at 31 g/ha,Kochia (Kochia scoparia) [14]; [21],0%
same,pest or weed control at 125 g/ha,[15]; [20],0%
same,pest or weed control at 31 g/ha,[15]; [21],0%
same,plant injury at 125 g/ha,corn (Zea mays); [20],0%
same,plant injury at 31 g/ha,corn (Zea mays); [21],0%
same,pest or weed control at 125 g/ha,"[16]; 125 g ai/ha, visual rating about 10 d after treatment, read-out: Barnyardgrass plant response rating (0 to 100 scale, 0 no effect, 100 complete control)",90%
same,pest or weed control at 31 g/ha,"[16]; 31 g ai/ha, 0 is no effect, 100 is complete control, read-out: Barnyardgrass plant response rating (0 to 100 scale)",60%
same,pest or weed control at 125 g/ha,[17]; [20],0%
same,pest or weed control at 31 g/ha,[17]; [21],0%
same,pest or weed control at 125 g/ha,[18]; [20],0%
same,pest or weed control at 31 g/ha,[18]; [21],0%
